Laboratory results reported in patent US10806121B2, “Animal litter containing a pheromone composition” (Sergeant's Pet Care Products, LLC, priority 2014, dated 2020).

Test system: cats
Assay: Study 2: behavior scores of paired unfamiliar cats, CON litter Day 1 then RP litter Day 2
Assay type: in vivo
Design: litter box weight, RP after / litter box weight, Change (RP): unit not given here
Settings: for Average aggression score by pair, Day 2 (RP): total possible 48
Protocol: During the studies, cat behavior was captured on video for the duration of the 24- or 48-hour period depending on the specific study. Red lights were used at night to allow for continuous observation. A scan sampling method was used to record cat behaviors each 5 minutes. The recorded videos were subsequently reviewed and analyzed in each 5-minute scan sample, with tape playing 30 frames per second. At each 5-minute time point, each cat was categorized as anxious or relaxed. Aggression or litter box usage occurred between 5-minute periods were also noted. Because each scan sample is of 5-minute period, a total of 24 observations for each individual behavior are possible for each 2 hours. The instances of an individual behavior (An; n=1, 2, 3, . . . 24) in each 5-minute period were totaled for instances in each 2 hours (Bm=ΣAn, n=1, 2, 3, . . . 24; m=1, 2, 3, . . . 12) over 24 hours. The behavioral score for each 2-hour period is ΣAn/24 (n=1, 2, 3, . . . , 24). A behavioral score for a 24-hour period is ΣBm/12 (m=1, 2, 3, . . . 12). Among all behavior assessed, aggression, in-litter-box and anxiety were scored as yes or no during each 5 minutes (An=1 or 0; n=1, 2, 3, . . . 24). In addition, anxiety was measured as a percentage of the total time that the cat was experiencing anxiety. As such the anxiety related behavioral score for a 24-hour period is 0.347×ΣBm (%) (Bm=ΣAn(%), n=1, 2, 3, . . . 24; m=1, 2, 3, . . . 12), which reflects the percentage of time over 24 hours that the cats are experiencing anxiety. Moreover, when ranking cat pairs based on their level of aggression, the sum of the aggression scores of the individual cats in the pair was used to rank the cat pairs. Behavior data (behavioral scores) were further analyzed by Least Squares Analysis of variance using SAS (2011, SAS Inst., Inc., Cary, N.C.) software and the p-diff general linear model procedures to assess treatment differences within each time period. This statistical model included effects of treatment (TRT), cat-pair within treatment (TRT*CAT), time (HR), treatment by time (TRT*HR) and residual error (SE; used to test remaining effects). The previous study established that cats are attracted to litter treated with 2-methylbut-2-enal. In this study, 48 cats were used to determine the effect of litter treated with 2-methylbut-2-enal (RP) to the cat's various behaviors listed in Table 5. Litter was prepared in two batches, by mixing beads about 0.065″ in length both with and without 2-methylbut-2-enal. Blank beads were mixed thoroughly into one batch of litter so that the litter comprised about 3% (w/w) beads to form the control litter (CON). Similarly, beads containing a pheromone composition comprising 0.02% (w/w) 2-methylbut-2-enal (formed in accordance with Example 2 or 3) were mixed thoroughly into the other batch of litter so that the litter also comprised 3% (w/w) beads to form the treated litter (RP). Each batch of the litter was divided into 3 lb. aliquots that were ready to be tested. The 48 cats were randomly grouped into 24 same-sex pairs, which were divided into two groups with 12 pairs in each. The cats of each pair had either been housed individually or in groups of two previously, but had not been placed together prior to this study. As such, each cat was made sure to pair with an unfamiliar cat for the duration of the study. The first 12 pairs of two unfamiliar cats were tested over a 48-hour period. Subsequently, all chambers used were sanitized and aired out, and then the second group of 12 pair of cats was tested. Each pair of cats was placed in a kennel containing one food dish, one water dish, and one litter box. […]

C/C=C(\C)C=O [RP, 2-methylbut-2-enal]
reduction of anxiety of the cats in pairs (Day 1 untreated litter (21%) to Day 2 treated litter (12%)): ~50% | Average behavior score: Head in food/H2O dish (Day 2, RP litter (3% (w/w) beads with 0.02% (w/w) 2-methylbut-2-enal), 24 cat pairs, Day 1 Con 0.90): 1.05 | Average behavior score: Grooming other (Day 2, RP litter, 24 cat pairs, Day 1 Con 0.03): 0.01 | Average behavior score: In litter box - using (Day 2, RP litter, 24 cat pairs, Day 1 Con 0.07): 0.27 | Average behavior score: Neutral social interaction (Day 2, RP litter, 24 cat pairs, Day 1 Con 0.48): 0.33 | Average behavior score: Play (Day 2, RP litter, 24 cat pairs, Day 1 Con 0.65): 0.52 | Average behavior score: Grooming self (Day 2, RP litter, 24 cat pairs, Day 1 Con 0.70): 0.77 | Average behavior score: Lying/sitting - touching (Day 2, RP litter, 24 cat pairs, Day 1 Con 0.89): 0.98 | Average behavior score: Sleeping (Day 2, RP litter, 24 cat pairs, Day 1 Con 1.98): 2.71 | Average behavior score: In litter box - not using (Day 2, RP litter, 24 cat pairs, Day 1 Con 2.10): 2.73 | Average behavior score: Aggression (Day 2, RP litter, 24 cat pairs, Day 1 Con 3.00): 1.95 | Average behavior score: Locomotion (Day 2, RP litter, 24 cat pairs, Day 1 Con 3.19): 4.66 | Average behavior score: Lying/sitting - not touching (Day 2, RP litter, 24 cat pairs, Day 1 Con 17.0): 15.4 | Average behavior score: Anxiety (%) (Day 2, RP litter, 24 cat pairs, percentage of time over 24 hours, Day 1 Con 21.0): 12.0% | Average aggression score by pair, Day 2 (RP) (Pair 1 (M, M), rank 6, Day 1 (con) 2.92): 0.13 | Average aggression score by pair, Day 2 (RP) (Pair 2 (M, M), rank 24, Day 1 (con) 0.00): 0.00 | Average aggression score by pair, Day 2 (RP) (Pair 3 (M, M), rank 4, Day 1 (con) 6.33): 3.42 | Average aggression score by pair, Day 2 (RP) (Pair 4 (M, M), rank 3, Day 1 (con) 6.50): 0.08 | Average aggression score by pair, Day 2 (RP) (Pair 5 (M, M), rank 5, Day 1 (con) 3.58): 4.67 | Average aggression score by pair, Day 2 (RP) (Pair 6 (M, M), rank 13, Day 1 (con) 1.08): 0.13 | Average aggression score by pair, Day 2 (RP) (Pair 7 (F, F), rank 20, Day 1 (con) 0.04): 0.33 | Average aggression score by pair, Day 2 (RP) (Pair 8 (F, F), rank 14, Day 1 (con) 0.50): 0.88 | Average aggression score by pair, Day 2 (RP) (Pair 9 (F, F), rank 19, Day 1 (con) 0.08): 0.08 | Average aggression score by pair, Day 2 (RP) (Pair 10 (F, F), rank 2, Day 1 (con) 10.13): 3.25 | Average aggression score by pair, Day 2 (RP) (Pair 11 (F, F), rank 12, Day 1 (con) 1.63): 1.50 | Average aggression score by pair, Day 2 (RP) (Pair 12 (F, F), rank 23, Day 1 (con) 0.00): 0.00 | Average aggression score by pair, Day 2 (RP) (Pair 13 (M, M), rank 1, Day 1 (con) 27.00): 18.25 | Average aggression score by pair, Day 2 (RP) (Pair 14 (M, M), rank 8, Day 1 (con) 2.54): 2.58 | Average aggression score by pair, Day 2 (RP) (Pair 15 (M, M), rank 7, Day 1 (con) 2.54): 3.83 | Average aggression score by pair, Day 2 (RP) (Pair 16 (C, M), rank 11, Day 1 (con) 1.63): 0.71 | Average aggression score by pair, Day 2 (RP) (Pair 17 (M, M), rank 9, Day 1 (con) 2.46): 2.13 | Average aggression score by pair, Day 2 (RP) (Pair 18 (M, M), rank 10, Day 1 (con) 2.38): 1.88 | Average aggression score by pair, Day 2 (RP) (Pair 19 (M, M), rank 15, Day 1 (con) 0.33): 0.00 | Average aggression score by pair, Day 2 (RP) (Pair 20 (F, F), rank 22, Day 1 (con) 0.00): 0.21 | Average aggression score by pair, Day 2 (RP) (Pair 21 (F, F), rank 18, Day 1 (con) 0.08): 0.92 | Average aggression score by pair, Day 2 (RP) (Pair 22 (F, F), rank 16, Day 1 (con) 0.17): 0.13 | Average aggression score by pair, Day 2 (RP) (Pair 23 (F, F), rank 17, Day 1 (con) 0.08): 1.00 | Average aggression score by pair, Day 2 (RP) (Pair 24 (F, F), rank 21, Day 1 (con) 0.00): 0.63 | litter box weight, Change (RP) (RP after minus RP before, CON change 0.02): 0.11 | Changes in litter box weights, % difference (RP change versus CON change): 438% | litter box weight, RP after (after 24 hours of use, RP before 2.1): 2.21 | reduction of aggression from Day 1 to Day 2 (aggression score 3.0 to 1.95 after exposure to RP litter): 68.3% | increase of litter box use (score 0.07 (Day 1 CON) to 0.27 (Day 2 RP)): 386%
